# Test system: cancer cell lines
# Test: Multiplexed cytotoxicity assay: cell proliferation (relative cell count IC50, GI50)
# Format: cell-based
# Method: (§1) Cells are grown in RPMI1640, 10% FBS, 2 mM L-alanyl-L-Glutamine, 1 mM Na pyruvate or a special medium in a humidified atmosphere of 5% CO2 at 37° C. Cells are seeded into 384-well plates and incubated in a humidified atmosphere of 5% CO2 at 37° C. Compounds are added 24 h post cell seeding. At the same time, a time zero untreated cell plate is generated. After a 72 hour incubation period, cells are fixed and stained with fluorescently labeled antibodies and nuclear dye to allow visualization of nuclei, apoptotic cells and mitotic cells. Apoptotic cells are detected using an anti-active caspase-3 antibody. Mitotic cells are detected using an anti phospho-histone-3 antibody. Compounds are serially diluted 3.16-fold and assayed over 10 concentrations in a final assay concentration of 0.1% DMSO from the highest test concentration of 10 μM. Automated fluorescence microscopy was carried out using a Molecular Devices ImageXpress Micro XL high-content imager, and images are collected with a 4× objective.
# Sixteen-bit TIFF images are acquired and analyzed with MetaXpress 5.1.0.41 software. Cell proliferation is measured by the signal intensity of the incorporated nuclear dye. The cell proliferation assay output is referred to as the relative cell count. To determine the cell proliferation end point, the cell proliferation data output is transformed to percentage of control (POC) using the following formula: POC=relative cell count(compound wells)/relative cell count(vehicle wells)×100
# GI50 is the concentration needed to reduce the observed growth by half. This is the concentration that inhibits the growth to the level midway between growth in untreated cells and the number of cells seeded in the well (Time zero value). The IC50 values are calculated using nonlinear regression to fit data to a sigmoidal 4 point, 4 parameter One-Site dose response model, where: y(fit)=A+[(B−A)/(1+((C/x)^D))].
# as §1, with “In another experiment, cells were grown” for “Cells are grown”, “Cells were” for “Cells are”, “Compounds were” for “Compounds are”, “plate was” for “plate is”, “cells were” for “cells are”, “images were” for “images are”
# Sixteen-bit TIFF images were acquired and analyzed with MetaXpress 5.1.0.41 software. Cell proliferation was measured by the signal intensity of the incorporated nuclear dye. The cell proliferation assay output was referred to as the relative cell count. To determine the cell proliferation end point, the cell proliferation data output was transformed to percentage of control (POC) using the following formula: POC=relative cell count(compound wells)/relative cell count(vehicle wells)×100
# GI50 refers to the concentration needed to reduce the observed growth by half. This corresponds to the concentration that inhibits the growth to the level midway between growth in untreated cells and the number of cells seeded in the well (Time zero value). The IC50 values were calculated using nonlinear regression to fit data to a sigmoidal 4 point, 4 parameter One-Site dose response model, where: y(fit)=A+[(B−A)/(1+((C/x)^D))].
# [1] = 72 h, G292CLONEA141B1, Soft Tissue, Osteosarcoma
# [2] = 72 h, HOS, Soft Tissue, Osteosarcoma
# [3] = 72 h, HS729, Soft Tissue, Sarcoma
# [4] = 72 h, HS821T, Soft Tissue, Sarcoma
# [5] = 72 h, HS888SK, Soft Tissue, Osteosarcoma
# [6] = 72 h, IM9, Hematopoietic and lymphoid, Myeloma
# [7] = 72 h, TE125T, Soft Tissue, Sarcoma
# [8] = 72 h, U266B1, Hematopoietic and lymphoid, Myeloma
# [9] = 72 h, VAESBJ, Soft Tissue, Sarcoma
# [10] = BC1 (Hematopoietic and lymphoid, Lymphoma)
# [11] = BCP-1, BCP1 (Hematopoietic and lymphoid, Lymphoma)
# [12] = BM-1604, 72 h, BM1604, Prostate, 72 h
# [13] = CEM/C1, CEMC1 (Hematopoietic and lymphoid, Leukemia)
# [14] = CML-T1, CMLT1 (Hematopoietic and lymphoid, Leukemia)
# [15] = D341 Med, D341MED (CNS, Medulloblastoma)
# [16] = DB (Hematopoietic and lymphoid, Lymphoma)
# [17] = EB2 (Hematopoietic and lymphoid, Lymphoma)
# [18] = EB3 (Hematopoietic and lymphoid, Lymphoma)
# [19] = EM2 (Hematopoietic and lymphoid, Leukemia)
# [20] = H9 (Hematopoietic and lymphoid, Lymphoma)
# [21] = HS611T (Hematopoietic and lymphoid, Lymphoma)
# [22] = HT (Hematopoietic and lymphoid, Lymphoma)
# [23] = HUH-6-clone5, HUH6CLONE5 (Liver)
# [24] = Homo sapiens, 22Rv1, 72 h, 22RV1, Prostate, 72 h
# [25] = Homo sapiens, 639-V, 639V (Bladder)
# [26] = Homo sapiens, 647-V, 647V (Bladder)
# [27] = Homo sapiens, 769-P, 769P (Kidney)
# [28] = Homo sapiens, 786-0, 786O (Kidney)
# [29] = Homo sapiens, A101D, A101D (Skin, Melanoma)
# [30] = Homo sapiens, A 172, A172 (CNS, Glioma)
# [31] = Homo sapiens, A204, 72 h, A204, Soft Tissue, Sarcoma, 72 h
# [32] = Homo sapiens, A253, A253 (Head and Neck)
# [33] = Homo sapiens, A498, A498 (Kidney)
# [34] = Homo sapiens, A549, 72 h, A549, Lung, NSCLC, 72 h
# [35] = Homo sapiens, A673, 72 h, A673, Soft Tissue, Sarcoma, 72 h
# [36] = Homo sapiens, A704, A704 (Kidney)
# [37] = Homo sapiens, A2058, A2058 (Skin, Melanoma)
# [38] = Homo sapiens, A-375, A375 (Skin, Melanoma)
# [39] = Homo sapiens, A-427, 72 h, A427, Lung, NSCLC, 72 h
# [40] = Homo sapiens, A-431, A431 (Skin, Carcinoma)
# [41] = Homo sapiens, ACHN, ACHN (Kidney)
# [42] = Homo sapiens, AN3-CA, 72 h, AN3CA, Female GU, Uterus
# [43] = Homo sapiens, ARH-77, 72 h, ARH77, Hematopoietic and lymphoid, Myeloma, 72 h
# [44] = Homo sapiens, ASPC1, 72 h, ASPC1, Pancreas, 72 h
# [45] = Homo sapiens, AU565, AU565 (Breast)
# [46] = Homo sapiens, BE(2)-C, 72 h, BE2C, CNS, Neuroblastoma
# [47] = Homo sapiens, BFTC-905, BFTC905 (Bladder)
# [48] = Homo sapiens, BHT-101, 72 h, BHT101, Endocrine, Thyroid, 72 h
# [49] = Homo sapiens, BPH-1, 72 h, BPH1, Prostate, 72 h
# [50] = Homo sapiens, BT-20, BT20 (Breast)
structure (smiles),measurement,setting,value
"C[C@]1(C(N)=O)CC[C@@H](n2c(Nc3c(Cl)cc(Cl)cc3Cl)nc3cnc(N[C@@H]4CCOC[C@H]4F)nc32)CC1 [Compound 1, cis-4-[2-{[(3S,4R)-3-fluorooxan-4-yl]amino}-8-(2,4,6-trichloroanilino)-9H-purin-9-yl]-1-methylcyclohexane-1-carboxamide]",GI50,5637 (Bladder),6.85 µM
same,IC50,5637 (Bladder),9.77 µM
same,GI50,"72 h, AGS, Stomach",0.0086 µM
same,IC50,"72 h, AGS, Stomach",0.0098 µM
same,GI50,[1],0.0272 µM
same,IC50,[1],0.0493 µM
same,GI50,[2],2.57 µM
same,IC50,[2],3.69 µM
same,GI50,"72 h, HS229T, Lung, NSCLC",0.415 µM
same,IC50,"72 h, HS229T, Lung, NSCLC",> 10 µM
same,GI50,[3],0.54 µM
same,IC50,[3],> 10 µM
same,GI50,[4],0.169 µM
same,IC50,[4],> 10 µM
same,GI50,[5],0.111 µM
same,IC50,[5],> 10 µM
same,GI50,[6],0.0911 µM
same,IC50,[6],0.143 µM
same,GI50,"72 h, JAR, Female GU, Placenta",3.17 µM
same,IC50,"72 h, JAR, Female GU, Placenta",3.21 µM
same,GI50,"72 h, KLE, Female GU, Uterus",> 10 µM
same,IC50,"72 h, KLE, Female GU, Uterus",> 10 µM
same,GI50,"72 h, PA1, Female GU, Ovary",0.471 µM
same,IC50,"72 h, PA1, Female GU, Ovary",2.62 µM
same,GI50,"72 h, PC3, Prostate",7.82 µM
same,IC50,"72 h, PC3, Prostate",8.54 µM
same,GI50,"72 h, RD, Soft Tissue, Sarcoma",0.0367 µM
same,IC50,"72 h, RD, Soft Tissue, Sarcoma",0.0443 µM
same,GI50,"72 h, SKPNDW, Stomach",3.6 µM
same,IC50,"72 h, SKPNDW, Stomach",> 10 µM
same,GI50,[7],1.09 µM
same,IC50,[7],> 10 µM
same,GI50,"72 h, TT, Endocrine, Thyroid",0.0863 µM
same,IC50,"72 h, TT, Endocrine, Thyroid",> 10 µM
same,GI50,[8],0.0133 µM
same,IC50,[8],0.109 µM
same,GI50,[9],0.336 µM
same,IC50,[9],0.58 µM
same,GI50,"A7 (Skin, Melanoma)",1.72 µM
same,IC50,"A7 (Skin, Melanoma)",7.27 µM
same,GI50,A388 (Head and Neck),0.422 µM
same,IC50,A388 (Head and Neck),1.12 µM
same,GI50,[10],> 10 µM
same,IC50,[10],> 10 µM
same,GI50,[11],0.0205 µM
same,IC50,[11],0.0797 µM
same,GI50,[12],0.141 µM
same,IC50,[12],0.401 µM
same,GI50,"C4I (Female GU, Cervix)",> 10 µM
same,IC50,"C4I (Female GU, Cervix)",> 10 µM
same,GI50,"C32 (Skin, Melanoma)",0.0289 µM
same,IC50,"C32 (Skin, Melanoma)",0.111 µM
same,GI50,"C32TG, C32TG (Skin, Melanoma)",0.0408 µM
same,IC50,"C32TG, C32TG (Skin, Melanoma)",0.109 µM
same,GI50,[13],> 10 µM
same,IC50,[13],> 10 µM
same,GI50,[14],0.149 µM
same,IC50,[14],> 10 µM
same,GI50,[15],10 µM
same,IC50,[15],0.0219 µM
same,GI50,[16],0.0131 µM
same,IC50,[16],> 10 µM
same,GI50,"DKMG (CNS, Glioma)",0.0207 µM
same,IC50,"DKMG (CNS, Glioma)",0.126 µM
same,GI50,[17],0.389 µM
same,IC50,[17],0.55 µM
same,GI50,[18],1.63 µM
same,IC50,[18],2.15 µM
same,GI50,[19],0.0481 µM
same,IC50,[19],0.0936 µM
same,GI50,"H4 (CNS, Glioma)",0.758 µM
same,IC50,"H4 (CNS, Glioma)",0.943 µM
same,GI50,[20],0.0232 µM
same,IC50,[20],0.039 µM
same,GI50,HLE (Liver),0.683 µM
same,IC50,HLE (Liver),1.04 µM
same,GI50,HLF (Liver),4.76 µM
same,IC50,HLF (Liver),6.47 µM
same,GI50,[21],0.0106 µM
same,IC50,[21],0.0123 µM
same,GI50,"HS688AT (Skin, Melanoma)",0.0822 µM
same,IC50,"HS688AT (Skin, Melanoma)",> 10 µM
same,GI50,"HS852T (Skin, Melanoma)",0.0564 µM
same,IC50,"HS852T (Skin, Melanoma)",0.715 µM
same,GI50,"HS895T (Skin, Melanoma)",> 10 µM
same,IC50,"HS895T (Skin, Melanoma)",> 10 µM
same,GI50,"HS934T (Skin, Melanoma)",0.0052 µM
same,IC50,"HS934T (Skin, Melanoma)",> 10 µM
same,GI50,"HS936TC1 (Skin, Melanoma)",0.0184 µM
same,IC50,"HS936TC1 (Skin, Melanoma)",0.0258 µM
same,GI50,"HT3 (Female GU, Cervix)",0.856 µM
same,IC50,"HT3 (Female GU, Cervix)",3.21 µM
same,GI50,[22],8.3 µM
same,IC50,[22],> 10 µM
same,GI50,[23],0.145 µM
same,IC50,[23],0.354 µM
same,GI50,[24],2.66 µM
same,IC50,[24],5.58 µM
same,GI50,[25],0.184 µM
same,IC50,[25],0.206 µM
same,GI50,[26],6.93 µM
same,IC50,[26],7.82 µM
same,GI50,[27],0.194 µM
same,IC50,[27],0.255 µM
same,GI50,[28],2.04 µM
same,IC50,[28],6.92 µM
same,GI50,[29],0.0424 µM
same,IC50,[29],0.0815 µM
same,GI50,[30],0.0649 µM
same,IC50,[30],0.139 µM
same,GI50,[31],> 10 µM
same,IC50,[31],> 10 µM
same,GI50,[32],0.171 µM
same,IC50,[32],> 10 µM
same,GI50,[33],0.522 µM
same,IC50,[33],0.808 µM
same,GI50,[34],0.102 µM
same,IC50,[34],0.128 µM
same,GI50,[35],3.75 µM
same,IC50,[35],3.87 µM
same,GI50,[36],> 10 µM
same,IC50,[36],> 10 µM
same,GI50,[37],0.212 µM
same,IC50,[37],0.288 µM
same,GI50,[38],0.0065 µM
same,IC50,[38],0.0072 µM
same,GI50,[39],0.0475 µM
same,IC50,[39],0.0763 µM
same,GI50,[40],0.228 µM
same,IC50,[40],0.311 µM
same,GI50,[41],0.306 µM
same,IC50,[41],0.55 µM
same,GI50,[42],0.713 µM
same,IC50,[42],7.03 µM
same,GI50,[43],> 10 µM
same,IC50,[43],> 10 µM
same,GI50,[44],0.0308 µM
same,IC50,[44],> 10 µM
same,GI50,[45],8.15 µM
same,IC50,[45],8.77 µM
same,GI50,[46],0.146 µM
same,IC50,[46],0.21 µM
same,GI50,[47],0.0515 µM
same,IC50,[47],0.0546 µM
same,GI50,[48],0.0376 µM
same,IC50,[48],0.0412 µM
same,GI50,[49],0.0578 µM
same,IC50,[49],0.0675 µM
same,GI50,[50],8.36 µM
same,IC50,[50],> 10 µM
